# Laboratory results as given in ChEMBL document CHEMBL1800031, “Gold(III) chloride catalyzed regioselective synthesis of pyrano[3,4-b]indol-1(9H)-ones and evaluation of anticancer potential towards human cervix adenocarcinoma” (Bioorg Med Chem Lett, 2011).
# Tested on: HeLa
# Experiment: Cytotoxicity against human HeLa cells after 48 hrs by MTT assay
# Assay type: functional, cell-based
row,Compound,IC50 [nM]
1,Cn1c2ccccc2c2cc(-c3ccccc3)oc(=O)c21,1900
2,CCn1c2ccccc2c2cc(-c3ccccc3)oc(=O)c21,11300
3,CCCCn1c2ccccc2c2cc(-c3ccccc3)oc(=O)c21,3200
4,COc1ccc2c(c1)c1cc(-c3ccccc3)oc(=O)c1n2C,220
5,CCn1c2ccc(OC)cc2c2cc(-c3ccccc3)oc(=O)c21,1200
6,CCCCn1c2ccc(OC)cc2c2cc(-c3ccccc3)oc(=O)c21,5000
7,COc1ccc2c(c1)c1cc(-c3ccccc3)oc(=O)c1n2Cc1ccccc1,6700
8,CCCCc1cc2c([nH]c3ccccc32)c(=O)o1,2600
9,O=c1oc(-c2ccccc2)cc2c1[nH]c1ccccc12,19100
10,COc1ccc2[nH]c3c(=O)oc(-c4ccccc4)cc3c2c1,330
